In PubChem BioAssay (NCI):
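Cultured in 96-well plates, cells were exposed to test compound for 48 hours across five concentrations. At the GI50, growth is halved. TGI marks complete inhibition of growth.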

Columns and labels:
Assay in all cases: NCI tumour cell line growth inhibition, 48 h
[1] = test system: T-47D breast
[2] = test system: HCC-2998 colon
[3] = test system: HT29 colon
[4] = test system: KM12 colon
[5] = test system: U251 CNS
[6] = test system: SF-539 CNS
[7] = test system: DU-145 prostate
[8] = test system: NCI/ADR-RES ovarian
[9] = test system: HCT-15 colon
[10] = test system: TK-10 renal
[11] = test system: M14 melanoma
[12] = test system: 786-0 renal
[13] = test system: COLO 205 colon
[14] = test system: LOX IMVI melanoma
[15] = test system: CAKI-1 renal
[16] = test system: A498 renal
[17] = test system: HOP-62 NSCLC
[18] = test system: IGROV1 ovarian
[19] = test system: OVCAR-5 ovarian
[20] = test system: HS 578T breast
[21] = test system: SK-OV-3 ovarian
[22] = test system: ACHN renal
[23] = test system: SNB-75 CNS
[24] = test system: UO-31 renal
[25] = test system: OVCAR-3 ovarian
[26] = test system: UACC-257 melanoma
[27] = test system: MDA-MB-435
[28] = test system: RPMI-8226 leukemia

SMILES: COc1ccc(-c2nc(N3CCN(C(=O)C4CCCCC4)CC3)c3c4c(sc3n2)CCCC4)cc1
- TGI [1]: > 100 µM
- GI50 [2]: > 100 µM
- TGI [2]: > 100 µM
- GI50 [3]: > 100 µM
- TGI [3]: > 100 µM
- GI50 [4]: > 100 µM
- TGI [4]: > 100 µM
- GI50 [5]: 37.9 µM
- TGI [5]: > 100 µM
- GI50 [6]: 39.4 µM
- TGI [6]: > 100 µM
- GI50 [7]: > 100 µM
- TGI [7]: > 100 µM
- GI50 [8]: > 100 µM
- TGI [8]: > 100 µM
- GI50 [9]: > 100 µM
- TGI [9]: > 100 µM
- GI50 [10]: 34.4 µM
- TGI [10]: 90.8 µM
- GI50 [11]: > 100 µM
- TGI [11]: > 100 µM
- GI50 [12]: 38.2 µM
- TGI [12]: > 100 µM
- GI50 [13]: > 100 µM
- TGI [13]: > 100 µM
- GI50 [14]: > 100 µM
- TGI [14]: > 100 µM
- GI50 [15]: 60.6 µM
- TGI [15]: > 100 µM
- GI50 [16]: 14.2 µM
- TGI [16]: 81.3 µM
- GI50 [17]: 27.5 µM
- TGI [17]: 86 µM
- GI50 [18]: 41.2 µM
- TGI [18]: > 100 µM
- GI50 [19]: > 100 µM
- TGI [19]: > 100 µM
- GI50 [20]: 24.7 µM
- TGI [20]: > 100 µM
- GI50 [21]: 25.2 µM
- TGI [21]: 71.7 µM
- GI50 [22]: 23.9 µM
- TGI [22]: > 100 µM
- GI50 [23]: 14.1 µM
- TGI [23]: 33.9 µM
- GI50 [24]: 95.4 µM
- TGI [24]: > 100 µM
- GI50 [25]: > 100 µM
- TGI [25]: > 100 µM
- GI50 [26]: > 100 µM
- TGI [26]: > 100 µM
- GI50 [27]: > 100 µM
- TGI [27]: > 100 µM
- GI50 [28]: 22 µM
- TGI [28]: > 100 µM
